Measurements as given in patent US11382328B2, “Rapid drug discovery methods for pathogen inactivation” (priority 2019, dated 2022).

System: E. coli strain W3110
Assay: Synergy assays: Biolog chemical sensitivity panels with Group IB metal, coefficient of drug interaction (CDI) from relative growth
Format: cell-based
Details: for CDI (coefficient of drug interaction), copper mixed with biocide: Copper (mM) section; for CDI (coefficient of drug interaction), gold + biocide: Gold (μM)
[1] = 1st of 3 copper concentrations (value not shown), 1st of four biocide concentrations
[2] = 1st of 3 copper concentrations (value not shown), 2nd of four biocide concentrations
[3] = 1st of 3 copper concentrations (value not shown), 3rd of four biocide concentrations
[4] = 1st of 3 copper concentrations (value not shown), 4th of four biocide concentrations
[5] = 2nd of 3 copper concentrations (value not shown), 1st of four biocide concentrations
[6] = 2nd of 3 copper concentrations (value not shown), 2nd of four biocide concentrations
[7] = 2nd of 3 copper concentrations (value not shown), 3rd of four biocide concentrations
[8] = 2nd of 3 copper concentrations (value not shown), 4th of four biocide concentrations
[9] = 3rd of 3 copper concentrations (value not shown), 1st of four biocide concentrations
[10] = 3rd of 3 copper concentrations (value not shown), 2nd of four biocide concentrations
[11] = 3rd of 3 copper concentrations (value not shown), 3rd of four biocide concentrations
[12] = 3rd of 3 copper concentrations (value not shown), 4th of four biocide concentrations
[13] = Gold section of Table 5, first of three gold concentrations (μM, value not given), biocide concentration 1 of 4
[14] = Gold section of Table 5, first of three gold concentrations (μM, value not given), biocide concentration 4 of 4
[15] = Gold section of Table 5, second of three gold concentrations (μM, value not given), biocide concentration 1 of 4
[16] = Gold section of Table 5, second of three gold concentrations (μM, value not given), biocide concentration 2 of 4
[17] = Gold section of Table 5, second of three gold concentrations (μM, value not given), biocide concentration 3 of 4
[18] = Gold section of Table 5, second of three gold concentrations (μM, value not given), biocide concentration 4 of 4
[19] = Gold section of Table 5, third of three gold concentrations (μM, value not given), biocide concentration 2 of 4
[20] = Gold section of Table 5, third of three gold concentrations (μM, value not given), biocide concentration 3 of 4
[21] = Gold section of Table 5, third of three gold concentrations (μM, value not given), biocide concentration 4 of 4
[22] = Silver 0.5 μM, 4th of four biocide concentrations, E. coli
[23] = Silver 1.0 μM, 3rd of four biocide concentrations, E. coli
[24] = Silver 1.0 μM, 4th of four biocide concentrations, E. coli
[25] = Silver 5.0 μM, 3rd of four biocide concentrations, E. coli
[26] = Silver 5.0 μM, 4th of four biocide concentrations, E. coli
[27] = Gold section of Table 5, first of three gold concentrations (μM, value not given), biocide concentration 3 of 4
[28] = Copper (mM), 1st of 3 copper concentrations (head line not shown), biocide concentration 3 of 4, E. coli
[29] = Copper (mM), 1st of 3 copper concentrations (head line not shown), biocide concentration 4 of 4, E. coli
[30] = Copper (mM), 2nd of 3 copper concentrations (head line not shown), biocide concentration 3 of 4, E. coli
[31] = Copper (mM), 2nd of 3 copper concentrations (head line not shown), biocide concentration 4 of 4, E. coli
[32] = Copper (mM), 3rd of 3 copper concentrations (head line not shown), biocide concentration 3 of 4, E. coli
[33] = Copper (mM), 3rd of 3 copper concentrations (head line not shown), biocide concentration 4 of 4, E. coli
[34] = first of 3 gold concentrations, biocide concentration 3 of 4
[35] = first of 3 gold concentrations, biocide concentration 4 of 4
[36] = second of 3 gold concentrations, biocide concentration 3 of 4
[37] = second of 3 gold concentrations, biocide concentration 4 of 4
[38] = third of 3 gold concentrations, biocide concentration 3 of 4
[39] = third of 3 gold concentrations, biocide concentration 4 of 4
[40] = Silver 0.5 μM, biocide concentration 1 of 4
[41] = Silver 0.5 μM, biocide concentration 2 of 4
[42] = Silver 0.5 μM, biocide concentration 3 of 4
[43] = Silver 0.5 μM, biocide concentration 4 of 4
[44] = Silver 1.0 μM, biocide concentration 2 of 4
[45] = Silver 1.0 μM, biocide concentration 3 of 4
[46] = Silver 1.0 μM, biocide concentration 4 of 4
[47] = Silver 5.0 μM, biocide concentration 1 of 4
[48] = Silver 5.0 μM, biocide concentration 2 of 4
[49] = Silver 5.0 μM, biocide concentration 3 of 4
[50] = Silver 5.0 μM, biocide concentration 4 of 4

Niaproof
CDI (coefficient of drug interaction), copper mixed with biocide [1]: 1.26
CDI (coefficient of drug interaction), copper mixed with biocide [2]: 1.45
CDI (coefficient of drug interaction), copper mixed with biocide [3]: 0.74
CDI (coefficient of drug interaction), copper mixed with biocide [4]: 0.91
CDI (coefficient of drug interaction), copper mixed with biocide [5]: 1.09
CDI (coefficient of drug interaction), copper mixed with biocide [6]: 1.20
CDI (coefficient of drug interaction), copper mixed with biocide [7]: 0.43
CDI (coefficient of drug interaction), copper mixed with biocide [8]: 0.46
CDI (coefficient of drug interaction), copper mixed with biocide [9]: 1.19
CDI (coefficient of drug interaction), copper mixed with biocide [10]: 1.00
CDI (coefficient of drug interaction), copper mixed with biocide [11]: 0.73
CDI (coefficient of drug interaction), copper mixed with biocide [12]: 1.32
CDI (coefficient of drug interaction) [13]: 1.32
CDI (coefficient of drug interaction) [14]: 1.27
CDI (coefficient of drug interaction) [15]: 1.21
CDI (coefficient of drug interaction) [16]: 1.03
CDI (coefficient of drug interaction) [17]: 1.09
CDI (coefficient of drug interaction) [18]: 1.15
CDI (coefficient of drug interaction) (Gold section of Table 5, third of three gold concentrations (μM, value not given), biocide concentration 1 of 4): 1.35
CDI (coefficient of drug interaction) [19]: 1.20
CDI (coefficient of drug interaction) [20]: 0.95
CDI (coefficient of drug interaction) [21]: 1.51
CDI (coefficient of drug interaction), silver + biocide (Silver 0.5 μM, 1st of four biocide concentrations, E. coli): 1.07
CDI (coefficient of drug interaction), silver + biocide (Silver 0.5 μM, 2nd of four biocide concentrations, E. coli): 1.17
CDI (coefficient of drug interaction), silver + biocide [22]: 1.74
CDI (coefficient of drug interaction), silver + biocide (Silver 1.0 μM, 2nd of four biocide concentrations, E. coli): 1.17
CDI (coefficient of drug interaction), silver + biocide [23]: 0.99
CDI (coefficient of drug interaction), silver + biocide [24]: 1.45
CDI (coefficient of drug interaction), silver + biocide (Silver 5.0 μM, 1st of four biocide concentrations, E. coli): 0.89
CDI (coefficient of drug interaction), silver + biocide (Silver 5.0 μM, 2nd of four biocide concentrations, E. coli): 0.99
CDI (coefficient of drug interaction), silver + biocide [25]: 0.78
CDI (coefficient of drug interaction), silver + biocide [26]: 0.55

CCn1cc(C(=O)O)c(=O)c2ccc(C)nc21 [Nalidixic Acid]
CDI (coefficient of drug interaction), copper mixed with biocide [3]: Tox
CDI (coefficient of drug interaction), copper mixed with biocide [4]: Tox
CDI (coefficient of drug interaction), copper mixed with biocide [7]: Tox
CDI (coefficient of drug interaction), copper mixed with biocide [8]: Tox
CDI (coefficient of drug interaction), copper mixed with biocide [11]: Tox
CDI (coefficient of drug interaction), copper mixed with biocide [12]: Tox
CDI (coefficient of drug interaction) [27]: Tox
CDI (coefficient of drug interaction) [14]: Tox
CDI (coefficient of drug interaction) [17]: Tox
CDI (coefficient of drug interaction) [18]: Tox
CDI (coefficient of drug interaction) [20]: Tox
CDI (coefficient of drug interaction) [21]: Tox
CDI (coefficient of drug interaction), silver + biocide (Silver 0.5 μM, 3rd of four biocide concentrations, E. coli): Tox
CDI (coefficient of drug interaction), silver + biocide [22]: Tox
CDI (coefficient of drug interaction), silver + biocide [23]: Tox
CDI (coefficient of drug interaction), silver + biocide [24]: Tox
CDI (coefficient of drug interaction), silver + biocide [25]: Tox
CDI (coefficient of drug interaction), silver + biocide [26]: Tox

NC(CCC(=O)NO)C(=O)O [L-glutamic-γ-hydroxamate]
CDI (coefficient of drug interaction) (Copper (mM), 1st of 3 copper concentrations (head line not shown), biocide concentration 1 of 4, E. coli): 1.14
CDI (coefficient of drug interaction) (Copper (mM), 1st of 3 copper concentrations (head line not shown), biocide concentration 2 of 4, E. coli): 1.16
CDI (coefficient of drug interaction) [28]: 0.97
CDI (coefficient of drug interaction) [29]: 1.01
CDI (coefficient of drug interaction) (Copper (mM), 2nd of 3 copper concentrations (head line not shown), biocide concentration 1 of 4, E. coli): 0.87
CDI (coefficient of drug interaction) (Copper (mM), 2nd of 3 copper concentrations (head line not shown), biocide concentration 2 of 4, E. coli): 0.90
CDI (coefficient of drug interaction) [30]: 0.92
CDI (coefficient of drug interaction) [31]: 0.96
CDI (coefficient of drug interaction) (Copper (mM), 3rd of 3 copper concentrations (head line not shown), biocide concentration 1 of 4, E. coli): 0.75
CDI (coefficient of drug interaction) (Copper (mM), 3rd of 3 copper concentrations (head line not shown), biocide concentration 2 of 4, E. coli): 0.80
CDI (coefficient of drug interaction) [32]: 0.69
CDI (coefficient of drug interaction) [33]: 0.74
CDI (coefficient of drug interaction), gold + biocide (first of 3 gold concentrations, biocide concentration 1 of 4): 1.03
CDI (coefficient of drug interaction), gold + biocide (first of 3 gold concentrations, biocide concentration 2 of 4): 1.03
CDI (coefficient of drug interaction), gold + biocide [34]: 1.08
CDI (coefficient of drug interaction), gold + biocide [35]: 1.08
CDI (coefficient of drug interaction), gold + biocide (second of 3 gold concentrations, biocide concentration 1 of 4): 1.02
CDI (coefficient of drug interaction), gold + biocide (second of 3 gold concentrations, biocide concentration 2 of 4): 1.01
CDI (coefficient of drug interaction), gold + biocide [36]: 1.09
CDI (coefficient of drug interaction), gold + biocide [37]: 1.04
CDI (coefficient of drug interaction), gold + biocide (third of 3 gold concentrations, biocide concentration 1 of 4): 1.01
CDI (coefficient of drug interaction), gold + biocide (third of 3 gold concentrations, biocide concentration 2 of 4): 1.01
CDI (coefficient of drug interaction), gold + biocide [38]: 1.02
CDI (coefficient of drug interaction), gold + biocide [39]: 1.01
CDI [40]: 0.93
CDI [41]: 0.75
CDI [42]: 0.61
CDI [43]: 0.49
CDI [44]: 0.97
CDI [45]: 0.93
CDI [46]: 0.71
CDI [47]: 1.00
CDI [48]: 0.85
CDI [49]: 0.71
CDI [50]: 0.34

gentamicin
CDI (coefficient of drug interaction), copper mixed with biocide [1]: 0.89
CDI (coefficient of drug interaction), copper mixed with biocide [2]: 0.87
CDI (coefficient of drug interaction), copper mixed with biocide [3]: 0.79
CDI (coefficient of drug interaction), copper mixed with biocide [4]: 0.86
CDI (coefficient of drug interaction), copper mixed with biocide [5]: 0.78
CDI (coefficient of drug interaction), copper mixed with biocide [6]: 0.80
CDI (coefficient of drug interaction), copper mixed with biocide [7]: 0.74
CDI (coefficient of drug interaction), copper mixed with biocide [8]: 1.54
CDI (coefficient of drug interaction), copper mixed with biocide [9]: 0.61
CDI (coefficient of drug interaction), copper mixed with biocide [10]: 0.59
CDI (coefficient of drug interaction), copper mixed with biocide [11]: 0.58
CDI (coefficient of drug interaction), copper mixed with biocide [12]: 0.61
CDI (coefficient of drug interaction) [13]: 0.97
CDI (coefficient of drug interaction) (Gold section of Table 5, first of three gold concentrations (μM, value not given), biocide concentration 2 of 4): 1.00
CDI (coefficient of drug interaction) [27]: 0.99
CDI (coefficient of drug interaction) [15]: 0.97
CDI (coefficient of drug interaction) [16]: 0.99
CDI (coefficient of drug interaction) [17]: 1.00
CDI (coefficient of drug interaction) [18]: 1.00
CDI (coefficient of drug interaction) [19]: 0.97
CDI (coefficient of drug interaction) [20]: 1.00
CDI [40]: 0.87
CDI [41]: 0.86
CDI [42]: 0.81
CDI [43]: 0.79
CDI [44]: 0.98
CDI [45]: 0.42
CDI [46]: 0.38
CDI [47]: 1.00
CDI [48]: 0.82
CDI [49]: 0.74
CDI [50]: 0.34

c1ccc(-c2nn(-c3ccccc3)[n+](-c3cccc4ccccc34)n2)cc1 [Tetrazolium violet]
CDI (coefficient of drug interaction) [28]: Tox
CDI (coefficient of drug interaction) [29]: Tox
CDI (coefficient of drug interaction) [30]: Tox
CDI (coefficient of drug interaction) [31]: Tox
CDI (coefficient of drug interaction) [32]: Tox
CDI (coefficient of drug interaction) [33]: Tox
CDI (coefficient of drug interaction), gold + biocide [34]: Tox
CDI (coefficient of drug interaction), gold + biocide [35]: Tox
CDI (coefficient of drug interaction), gold + biocide [36]: Tox
CDI (coefficient of drug interaction), gold + biocide [37]: Tox
CDI (coefficient of drug interaction), gold + biocide [38]: Tox
CDI (coefficient of drug interaction), gold + biocide [39]: Tox
CDI [42]: Tox
CDI [43]: Tox
CDI [45]: Tox
CDI [46]: Tox
CDI [49]: Tox
CDI [50]: Tox
